# US20210324092A1, “MONOCLONAL ANTIBODY COMPOSITION FOR TREATMENT OF PHILADELPHIA CHROMOSOME POSITIVE ACUTE LYMPHOBLASTIC LEUKEMIA” (priority 2018, published 2021)
# B1: IL7: interleukin 7, a cytokine which is important for B and T cell development (protein, UniProt P13232 26-177, looked up)
# Interleukin-7: DCDIEGKDGKQYESVLMVSIDQLLDSMKEIGSNCLNNEFNFFKRHICDANKEGMFLFRAARKLRQFLKMNSTGDFDLHLLKVSEGTTILLNCTGQVKGRKPAALGEAQPTKSLEENKSLKEQKKLNDLCFLKRLLQEIKTCWNKILMGTKEH
# Test system: BCR-ABL+ pre-B cells
# Test: Rescue of BCR-ABL+ pre-B cells from imatinib-induced cell death; cell cycle analysis (FIGS. 6 and 7)
# Type: cell-based, mice
# Details: for effect on BCR-ABL inhibitor (imatinib)-induced cell death: Imatinib 1 μM, IL7 2.5 ng/ml, CXCL12 100 ng/ml, AMD3100 10 μM
Molecule,effect on BCR-ABL inhibitor (imatinib)-induced cell death,cell cycling under imatinib treatment (imatinib in the presence of IL7)
"c1cc(CN2CCCNCCNCCCNCC2)ccc1CN1CCCNCCNCCCNCC1 [AMD3100, reference compound]",did not affect imatinib treatment,
TSLP: the ligand for CRLF2,did not affect imatinib treatment,
B1,counteracted the BCR-ABL inhibitor-induced cell death,restored cell cycling
